Measurements taken from patent US20200147028A1, “TREATMENT OF RESPIRATORY INFECTION WITH A TLR2 AGONIST” (Ena Therapeutics Pty Ltd, priority 2017, published 2020).
“Also recorded” adds a separate entry of the source. Read-outs that look alike come from different tables or passages of the source. No end group written: not given here.

How the values were obtained:
[1] = system: Rhinovirus serotype 1B (RV1B); assay: Mouse RV1B infection model: lung viral RNA by qPCR; conditions: for reduction of RV infection (lung RV copy number): Study 1E: 10 pmol day −7; for RV copy number in lung: Study 1E: every dose 1-10 pmol day −7; for lung viral load: day +1
TNFα = assay: Mouse RV1B infection model: TNFα in BAL by ELISA
Protocol: (§1) Remaining lung lobes we snap frozen in liquid nitrogen, homogenised in 600 μl PBS containing protease inhibitors (Roche) by TissueLyser II run twice at 30 Hz for 4 minutes. Cell debris was pelleted by centrifugation, samples were diluted 1:2 with PBS and stored at −80° C. BAL fluid was then analysed for production of KC/IL-8 (CXCL1) and TNF-α by Duoset ELISA (R&D Systems) as per manufacturer's instructions.

[2] = parameters: species or system BALB/c mice; conditions: mouse, in vivo
Source text: Each group contained 5 mice.

CXCL1 = assay: Mouse RV1B infection model: CXCL1 in BAL by ELISA
Protocol: as §1

BAL inflammatory cells = assay: Mouse RV1B infection model: BAL cell analysis
Protocol: Following sacrifice, mice were tracheally cannulated and 1 ml of Hanks buffered saline solution (Hyclone™, GE Life Sciences) flushed through the airways, 3-5 times. BAL cells were pelleted by centrifugation and supernatant was collected and stored at −80° C. for ELISAs. The pelleted cells were red blood cells lysed and the remaining cells were counted on a heamocytometer by trypan blue exclusion. Cell suspensions were then cytocentrifuged onto slides and fixed and stained with Diff Quick (POCD) solutions as per manufacturer's recommendations. A minimum of 200 total cells were counted per slide and numbers of neutrophils, lymphocytes, and macrophages were determined.

[3] = system: Rhinovirus serotype 1B (RV1B); assay: Mouse RV1B infection with fluticasone propionate: lung viral RNA by qPCR; conditions: FP 1 hour before RV1B in Saline control mice
TNF-α = assay: Mouse RV1B infection with fluticasone propionate: TNF-α in BAL by ELISA; type: in vivo, BALB/c mice; conditions: FP treatment
[4] = type: in vivo, BALB/c mice; conditions: 2 pmol INNA-006 day −7 or day −7 & −1; FP 1 hour before RV1B
Source text: Each group contained 8 mice.

TLR-2 = TLR-2 (Homo sapiens, UniProt O60603); assay: NF-κB luciferase reporter in HEK293T cells transfected with human TLR2; type: cell-based; parameters: expressed in transfected cells; host or cells: HEK293T; conditions: dose range 12.2 pM to 3.125 pM, FIG. 20
Sequence of TLR-2 (O60603 21-784): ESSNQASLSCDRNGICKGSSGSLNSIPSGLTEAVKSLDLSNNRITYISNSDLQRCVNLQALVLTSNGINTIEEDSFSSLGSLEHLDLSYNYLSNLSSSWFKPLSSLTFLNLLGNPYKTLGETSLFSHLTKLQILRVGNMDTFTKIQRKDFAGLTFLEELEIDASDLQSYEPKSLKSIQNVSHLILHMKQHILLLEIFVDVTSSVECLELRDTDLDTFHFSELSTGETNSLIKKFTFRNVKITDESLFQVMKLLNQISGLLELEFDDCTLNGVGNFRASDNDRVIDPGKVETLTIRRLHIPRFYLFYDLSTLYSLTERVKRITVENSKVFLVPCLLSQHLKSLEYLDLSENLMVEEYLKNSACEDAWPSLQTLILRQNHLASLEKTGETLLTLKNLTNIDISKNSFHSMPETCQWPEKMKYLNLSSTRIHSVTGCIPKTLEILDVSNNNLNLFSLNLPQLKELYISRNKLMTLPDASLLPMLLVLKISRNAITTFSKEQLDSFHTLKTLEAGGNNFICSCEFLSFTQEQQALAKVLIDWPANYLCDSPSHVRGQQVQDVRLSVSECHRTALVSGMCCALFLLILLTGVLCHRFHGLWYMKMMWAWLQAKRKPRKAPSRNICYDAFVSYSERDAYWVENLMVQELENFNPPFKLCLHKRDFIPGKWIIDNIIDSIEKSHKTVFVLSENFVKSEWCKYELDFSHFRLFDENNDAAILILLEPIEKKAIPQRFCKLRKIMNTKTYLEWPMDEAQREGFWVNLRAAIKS
Sequence of TLR-2 (Q15399 25-786 partner): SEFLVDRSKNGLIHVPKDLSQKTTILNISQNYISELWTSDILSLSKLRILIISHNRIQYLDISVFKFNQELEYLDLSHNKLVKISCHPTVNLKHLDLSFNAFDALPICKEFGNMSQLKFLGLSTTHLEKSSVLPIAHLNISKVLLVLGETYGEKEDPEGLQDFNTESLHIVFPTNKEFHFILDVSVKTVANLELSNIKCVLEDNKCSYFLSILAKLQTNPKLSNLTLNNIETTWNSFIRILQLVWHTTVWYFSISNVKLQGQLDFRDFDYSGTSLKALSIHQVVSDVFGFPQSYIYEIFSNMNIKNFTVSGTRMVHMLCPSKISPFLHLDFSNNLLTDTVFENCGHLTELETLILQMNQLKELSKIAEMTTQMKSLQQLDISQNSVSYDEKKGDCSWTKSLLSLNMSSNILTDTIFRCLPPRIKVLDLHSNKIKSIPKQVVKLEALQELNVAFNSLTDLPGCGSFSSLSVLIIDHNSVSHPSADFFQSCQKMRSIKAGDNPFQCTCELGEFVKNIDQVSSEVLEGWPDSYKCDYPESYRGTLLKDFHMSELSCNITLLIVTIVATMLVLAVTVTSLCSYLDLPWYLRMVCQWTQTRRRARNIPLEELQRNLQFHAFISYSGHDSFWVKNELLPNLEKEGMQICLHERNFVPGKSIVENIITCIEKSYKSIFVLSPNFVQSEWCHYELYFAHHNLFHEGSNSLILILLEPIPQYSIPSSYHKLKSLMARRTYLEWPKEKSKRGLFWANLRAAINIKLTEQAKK
Protocol: Comparison of the abilities of various compounds to stimulate luciferase activity in an NF-κB cell-based reporter system was determined. Compounds tested include INNA-006 (or compound (1)); INNA-013 (or compound (4)); INNA-014 (or compound (3)); INNA-015 (or compound (2)); INNA-010; INNA-011 (or compound (5)); INNA-012 (or compound (6)); and INNA-009. HEK293T cells, transiently co-transfected with a human TLR2 plasmid and a luciferase-NF-κB plasmid reporter system, were exposed to various dilutions of each compound. Successful receptor binding and subsequent signal transduction events were determined by measuring the luminescence due to luciferase activity (results shown in FIG. 19—left to right columns for each concentration are in the following order INNA-006 (or compound (1)); INNA-013 (or compound (4)); INNA-014 (or compound (3)); INNA-015 (or compound (2)); INNA-010; INNA-011 (or compound (5)); INNA-012 (or compound (6)); and INNA-009.
Comparison of the in vitro TLR2 agonistic activity of Pam3Cys-Ser-PEG3000 and INNA-006: HEK293T cells, transiently co-transfected with a human TLR2 plasmid and a luciferase-NF-κB plasmid reporter system, were exposed to various dilutions of INNA-006 or Pam3Cys-Ser-PEG3000.
Successful receptor binding and subsequent signal transduction events were determined by measuring the luminescence due to luciferase activity (FIG. 20).

[5] = Study 1G: lowest doses (2 pmole and 1 pmole) day +1, listed as Peg-SS-Pam2Cys

## Pam2Cys-SS-PEG [INNA-003]
[1]
  reduction of RV infection (lung RV copy number): 84.82%
[1]; Study 1E: 10 pmol dose day −7, listed as Peg-SS-Pam2Cys
  anti-viral efficacy relative to Pam2CysSK4: better anti-viral efficacy compared to Pam2CysSK4
[1]; day 2 p.i.
  RV copy number in lung: significant reduction in RV infection
[1]; Study 1F: single treatment at day −7
  reduced viral RNA: 70%
[1]; Study 1F: treatment at both days −7 and −1
  reduction in viral RNA: approx. 90%
[1]; Study 1G: 10, 5, 2, 1 pmol 1 day post-infection, day 2 p.i.
  RV copy numbers in lung: reduces RV1B copy numbers in the lung
[1]; Study 1G: doses 5 pmole per mouse and lower
  lung viral load: significant reduction in lung viral load
[1]; Study 1G: highest dose 10 pmole per mouse
  lung viral load: less effective
TNFα; Study 1E: day −7, listed as Peg-SS-Pam2Cys
  TNF-α in BAL: not increased by any of the compounds; also recorded: lack of induction of TNFα
TNFα; Study 1F: 2 pmol, all groups
  TNF-α in BAL: did not induce TNF-α in any of the groups
TNFα; Study 1G: 10-1 pmol day +1
  TNF-α in BAL: dose dependent upon drug treatment
TNFα; [5]
  TNF-α in BAL: not increased by the lowest doses; also recorded: no significant increase in KC or TNFα
[2]
  weight loss: weight loss at the higher doses
  weight loss after second dose: no weight loss observed
CXCL1; Study 1E: every dose (1-10 pmol) day −7
  CXCL1 in BAL: effectively reduced CXCL1 levels
CXCL1; Study 1F: 2 pmol day −1, RV1B, listed as Peg-SS-Pam2Cys
  CXCL1 in BAL: CXCL1 production was only increased; also recorded: significantly increased in mice treated one day prior to infection
CXCL1; Study 1F: 2 pmol day −7 and day −1, listed as Peg-SS-Pam2Cys
  CXCL1 / lung inflammation after day −1 dose with prior day −7 dose: protected from lung inflammation; also recorded: completely abolished
CXCL1; Study 1G: 10-1 pmol day +1
  CXCL1 in BAL: dose dependent upon drug treatment
CXCL1; [5]
  CXCL1 (KC) in BAL: not increased by the lowest doses; also recorded: no significant increase in KC or TNFα
BAL inflammatory cells; Study 1E: day −7, day 2 p.i.
  RV-induced BAL neutrophilic inflammation: significantly reduced neutrophilic inflammation
BAL inflammatory cells; Study 1F
  inflammatory potency, Peg-SS-Pam2Cys versus Peg-S-Pam2Cys: Peg-SS-Pam2Cys more inflammatory
BAL inflammatory cells; Study 1F: 2 pmol, 1 day prior to RV or mock infection
  BAL neutrophils: only significantly increased in mice with Peg-SS-Pam2Cys treatment 1 day prior to RV or mock infection
BAL inflammatory cells; Study 1F: 2 pmol, day −7, day −1 or both
  BAL lymphocytes: induced by Peg-SS-Pam2Cys at all treatment times (except day −7 treatment with RV1B infection)
BAL inflammatory cells; Study 1F: 2 pmol, vs Saline RV
  total BAL leukocytes in RV1B infected mice: did not induce significantly higher leukocyte recruitment
BAL inflammatory cells; Study 1F: 2 pmol, vs Saline mock
  total BAL leukocytes in mock infected mice: Total leukocytes were increased
BAL inflammatory cells; Study 1F: three days after dosing (d-1 groups)
  neutrophilic response in uninfected mice: there was a neutrophilic response to Peg-SS-Pam2Cys
BAL inflammatory cells; Study 1G: day +1 treatment
  BAL lymphocytes: no changes to lymphocyte numbers
  BAL macrophages: significantly reducing macrophage numbers
  total BAL leucocyte numbers: no significant differences
BAL inflammatory cells; Study 1G: day +1 treatment, listed as Peg-SS-Pam2Cys
  BAL neutrophils: drastically increases neutrophil numbers in BAL; also recorded: increasing neutrophil recruitment

## Pam2Cys-Ser-Lys-Lys-Lys-Lys (C(dipalmitoyl‑S‑glyceryl)SKKKK) [INNA-005, reference compound]
[1]; Study 1E, day −7 (discussion)
  reduction in lung viral load: 50%
[1]
  reduction of RV infection (lung RV copy number): 58%
[1]; day 2 p.i.
  RV copy number in lung: significant reduction in RV infection
TNFα; Study 1E: day −7
  TNF-α in BAL: not increased by any of the compounds
CXCL1; Study 1E: 10 pmol and 5 pmol dose day −7
  CXCL1 in BAL: effectively reduced CXCL1 levels

## CCC(=O)O[C@]1(C(=O)SCF)[C@H](C)C[C@H]2[C@@H]3C[C@H](F)C4=CC(=O)C=C[C@]4(C)[C@@]3(F)[C@@H](O)C[C@@]21C [FP, fluticasone propionate, reference compound]
[3]
  viral lung load: Viral lung load was increased; also recorded: increased viral lung load in Saline control mice only
TNF-α
  TNF-α production stimulated by INNA-006: reduced TNF-α production stimulated by INNA-006
[4]
  weight loss: no significant weight loss

## Pam3Cys-Ser-PEG3000
TLR-2
  ability to signal NF-κB (luciferase), versus INNA-006: inferior to INNA-006
